# Laboratory results taken from US20220081422A1 (Janssen Biotech, Inc., priority 2019, published 2022).
# Assays:
# human DHODH = biological target: T1, human DHODH (Homo sapiens, UniProt Q02127); test: DHODH enzymatic assay (DCIP absorbance, end-point); type: biochemical; conditions: purified human DHODH, DCIP as final electron acceptor, end-point mode; read-out: hDHODH IC50
# T1 construct: purchased Proteros PR-0044
# Procedure: In vitro Assay: DHODH enzymatic assay
# To detect DHODH enzyme activities, dichloroindophenol (DCIP) is added as the final electron acceptor in the assay. DCIP can accept electrons from the reduced coenzyme Q generated in the assay, or from dihydroorotate (DHO) via FMN by binding presumably to the ubiquinone pocket. […] The assay buffer contained […], pH 7.5, 150 mM NaCl, 0.5 mM EDTA, and 0.1% Triton X-100 in MilliQ water. Substrate consisting of 20 mM DHO, 5 mM CoQ6, and 1 mM DCIP in assay buffer, initiates the reaction. […] Absorbance measurements were obtained using the BMG Phera Star plate-reading spectrophotometer. Purified human DHODH was purchased from Proteros (cat. No. PR-0044). Chemicals were purchased from Sigma-Aldrich, Teknova, and Avanti Polar Lipids. Liquid handling was performed using Labcyte Echo and Formulatrix Tempest.
# MOLM-13 cells = test: MOLM-13 cellular assay (CellTiter-Glo cell viability); type: cell-based; conditions: 72 hours exposure, cell viability by CellTiter-Glo
# Procedure: In Vitro Assay: MOLM-13 Cellular Assay
# MOLM-13 cells were obtained from DSMZ and were maintained in RPMI 1640+Glutamax+25 mM HEPES (Invitrogen, catalog number 72400) supplemented with 10% heat inactivated fetal bovine serum (FBS; Invitrogen, catalog number 16140). The day prior to assay set-up, cells were pelleted, resuspended in fresh media, counted, and cells were plated at 0.4×10^6 cell/mL in a T150 flask. On the day of the assay, cells were pelleted, resuspend in fresh media, counted and seeded at 5,000 cells/well in white opaque 96-well tissue culture treated microplates (Perkin Elmer, catalog number 6005680). Cells were exposed to different concentrations of test compounds at 37° C., 5% CO2 for 72 hours immediately after seeding. Cell viability was acquired on a Perkin Elmer Envision 2104 multilabel reader using the CellTiter-Glo assay (Promega) according to the manufacturer's instructions.
# T1 sequence (Q02127 whole entry): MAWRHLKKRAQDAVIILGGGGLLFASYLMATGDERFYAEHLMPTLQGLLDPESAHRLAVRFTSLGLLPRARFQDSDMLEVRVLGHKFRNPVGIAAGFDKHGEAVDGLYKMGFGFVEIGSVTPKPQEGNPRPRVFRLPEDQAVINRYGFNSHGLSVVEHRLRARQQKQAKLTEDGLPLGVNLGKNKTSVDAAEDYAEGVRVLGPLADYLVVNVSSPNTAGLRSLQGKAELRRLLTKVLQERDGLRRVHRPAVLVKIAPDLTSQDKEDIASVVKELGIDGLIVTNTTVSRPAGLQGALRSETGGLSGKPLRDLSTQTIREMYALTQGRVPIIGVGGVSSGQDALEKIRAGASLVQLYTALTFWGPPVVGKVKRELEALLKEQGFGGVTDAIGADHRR
SMILES,IC50 (human DHODH) [nM],IC50 (MOLM-13 cells) [nM],"IC50 (MOLM-13 cells; Homo sapiens, MOLM-13, 72 h) [nM]"
"C=C(C)C1CN(c2c(F)cccc2Cl)C(=O)c2ccc(-n3nc(CO)n(CC)c3=O)cc21 (racemic) [Example 11, Racemic-2-(2-Chloro-6-fluorophenyl)-6-(4-ethyl-3-(hydroxymethyl)-5-oxo-4,5-dihydro-1H-1,2,4-triazol-1-yl)-4-(prop-1-en-2-yl)-3,4-dihydroisoquinolin-1(2H)-one]",1.7,,1
"CCn1c(CO)nn(-c2ccc3c(c2)C(c2ccccc2)CN(c2cccc(F)c2)C3=O)c1=O (racemic) [Example 14, Racemic-6-(4-Ethyl-3-(hydroxymethyl)-5-oxo-4,5-dihydro-1H-1,2,4-triazol-1-yl)-2-(3-fluorophenyl)-4-phenyl-3,4-dihydroisoquinolin-1(2H)-one]",1030,,758
"CCCCN1CN(c2c(F)cccc2Cl)C(=O)c2cc(F)c(-n3nc(CO)n(CC)c3=O)cc21 [Example 20, 1-Butyl-3-(2-chloro-6-fluorophenyl)-7-(4-ethyl-3-(hydroxymethyl)-5-oxo-4,5-dihydro-1H-1,2,4-triazol-1-yl)-6-fluoro-2,3-dihydroquinazolin-4(1H)-one]",5,,10.2
"CCn1c(CO)nn(-c2nc3c(cc2F)C(=O)N(c2c(F)cccc2Cl)CN3C2CCOCC2)c1=O [Example 6, 3-(2-Chloro-6-fluorophenyl)-7-(4-ethyl-3-(hydroxymethyl)-5-oxo-4,5-dihydro-1H-1,2,4-triazol-1-yl)-6-fluoro-1-(tetrahydro-2H-pyran-4-yl)-2,3-dihydropyrido[2,3-d]pyrimidin-4(1H)-one]",57,,50
"CCn1c(CO)nn(-c2nc3c(cc2F)C(=O)N(c2c(F)cccc2Cl)CN3[C@@H](C)C2OCCCO2)c1=O [Example 23, (S)-1-(1-(1,3-Dioxan-2-yl)ethyl)-3-(2-chloro-6-fluorophenyl)-7-(4-ethyl-3-(hydroxymethyl)-5-oxo-4,5-dihydro-1H-1,2,4-triazol-1-yl)-6-fluoro-2,3-dihydropyrido[2,3-d]pyrimidin-4(1H)-one]",3,,6.64
"C=C(C)C1CN(c2c(Cl)ccnc2C)C(=O)c2cc(F)c(-n3nc(CO)n(CC)c3=O)cc21 (racemic) [Example 25, Racemic-2-(4-Chloro-2-methylpyridin-3-yl)-6-(4-ethyl-3-(hydroxymethyl)-5-oxo-4,5-dihydro-1H-1,2,4-triazol-1-yl)-7-fluoro-4-(prop-1-en-2-yl)-3,4-dihydroisoquinolin-1(2H)-one]",> 100,,62.5
"CCn1c(CO)nn(-c2cc3c(cc2F)C(=O)N(c2nc(OC)ccc2Cl)CN3C(C)C)c1=O [Example 30, 3-(3-Chloro-6-methoxypyridin-2-yl)-7-(4-ethyl-3-(hydroxymethyl)-5-oxo-4,5-dihydro-1H-1,2,4-triazol-1-yl)-6-fluoro-1-isopropyl-2,3-dihydroquinazolin-4(1H)-one]",3,,3.39
"CCn1c(CO)nn(-c2cc3c(cc2F)C(=O)N(c2c(F)cccc2Cl)C(C)N3C(C)C)c1=O (centres unmarked) [Example 2, 3-(2-Chloro-6-fluorophenyl)-7-(4-ethyl-3-(hydroxymethyl)-5-oxo-4,5-dihydro-1H-1,2,4-triazol-1-yl)-6-fluoro-1-isopropyl-2-methyl-2,3-dihydroquinazolin-4(1H)-one]",35,,8.4
"CCn1c(CO)nn(-c2cc3c(cc2F)C(=O)N(c2c(F)cccc2Cl)CN3CC(C)C)c1=O [Example 18, 3-(2-Chloro-6-fluorophenyl)-7-(4-ethyl-3-(hydroxymethyl)-5-oxo-4,5-dihydro-1H-1,2,4-triazol-1-yl)-6-fluoro-1-isobutyl-2,3-dihydroquinazolin-4(1H)-one]",2,,3.99

# Results, then the compound that gave them:
IC50 (human DHODH) [nM],IC50 (MOLM-13 cells) [nM],"IC50 (MOLM-13 cells; Homo sapiens, MOLM-13, 72 h) [nM]",SMILES
40,52.9,,"C=C(C)C1CN(c2cc(C)ccc2F)C(=O)c2cc(F)c(-n3nc(CO)n(CC)c3=O)cc21 (single isomer, unassigned) [Example 40, (R *)-6-(4-Ethyl-3-(hydroxymethyl)-5-oxo-4,5-dihydro-1H-1,2,4-triazol-1-yl)-7-fluoro-2-(2-fluoro-5-methylphenyl)-4-(prop-1-en-2-yl)-3,4-dihydroisoquinolin-1(2H)-one]"
7,,6.98,"C=C(C)C1CN(c2c(C)ccnc2Cl)C(=O)c2cc(F)c(-n3nc(CO)n(CC)c3=O)cc21 (racemic) [Example 45, Racemic-2-(2-chloro-4-methylpyridin-3-yl)-6-(4-ethyl-3-(hydroxymethyl)-5-oxo-4,5-dihydro-1H-1,2,4-triazol-1-yl)-7-fluoro-4-(prop-1-en-2-yl)-3,4-dihydroisoquinolin-1(2H)-one]"
2,0.793,,"C=C(C)[C@@H]1CN(c2c(C)cnc(OC)c2Cl)C(=O)c2cc(F)c(-n3nc(CO)n(CC)c3=O)cc21 (single isomer, unassigned; atropisomer 1) [Example 62, Atropisomer 1, (S*)-2-(3-Chloro-2-methoxy-5-methylpyridin-4-yl)-6-(4-ethyl-3-(hydroxymethyl)-5-oxo-4,5-dihydro-1H-1,2,4-triazol-1-yl)-7-fluoro-4-(prop-1-en-2-yl)-3,4-dihydroisoquinolin-1(2H)-one]"
20,14.1,,"C=C(C)C1CN(c2cc(C)ccc2F)C(=O)c2cc(F)c(-n3nc(CO)n(CC)c3=O)cc21 (single isomer, unassigned) [Example 39, (S *)-6-(4-Ethyl-3-(hydroxymethyl)-5-oxo-4,5-dihydro-1H-1,2,4-triazol-1-yl)-7-fluoro-2-(2-fluoro-5-methylphenyl)-4-(prop-1-en-2-yl)-3,4-dihydroisoquinolin-1(2H)-one]"
10,2.28,,"C=C(C)C1CN(c2c(C)n[nH]c2Cl)C(=O)c2cc(F)c(-n3nc(CO)n(CC)c3=O)cc21 (single isomer, unassigned) [Example 49, (R *)-2-(5-Chloro-3-methyl-1H-pyrazol-4-yl)-6-(4-ethyl-3-(hydroxymethyl)-5-oxo-4,5-dihydro-1H-1,2,4-triazol-1-yl)-7-fluoro-4-(prop-1-en-2-yl)-3,4-dihydroisoquinolin-1(2H)-one]"
> 100,101,,"C=C(C)[C@@H]1CN(c2c(C)cnc(OC)c2C)C(=O)c2cc(F)c(-n3nc(CO)n(CC)c3=O)cc21 (single isomer, unassigned; atropisomer 2) [Example 56, Atropisomer 2, (S*)-6-(4-Ethyl-3-(hydroxymethyl)-5-oxo-4,5-dihydro-1H-1,2,4-triazol-1-yl)-7-fluoro-2-(2-methoxy-3,5-dimethylpyridin-4-yl)-4-(prop-1-en-2-yl)-3,4-dihydroisoquinolin-1(2H)-one]"
4,,4.3,"CC[C@H](C)[C@H]1CN(c2c(F)cccc2Cl)C(=O)c2cc(F)c(-n3nc(CO)n(CC)c3=O)cc21 (relative stereo) [Example 71, (R*)-4-((S *)-sec-B utyl)-2-(2-chloro-6-fluorophenyl)-6-(4-ethyl-3-(hydroxymethyl)-5-oxo-4,5-dihydro-1H-1,2,4-triazol-1-yl)-7-fluoro-3,4-dihydroisoquinolin-1(2H)-one]"
> 100,1160,,"C=C(C)[C@H]1CN(c2c(C)cnc(OC)c2C)C(=O)c2cc(F)c(-n3nc(CO)n(CC)c3=O)cc21 (single isomer, unassigned; atropisomer 1) [Example 55, Atropisomer 1, (R *)-6-(4-Ethyl-3-(hydroxymethyl)-5-oxo-4,5-dihydro-1H-1,2,4-triazol-1-yl)-7-fluoro-2-(2-methoxy-3,5-dimethylpyridin-4-yl)-4-(prop-1-en-2-yl)-3,4-dihydroisoquinolin-1(2H)-one]"
> 100,351,,"CCn1c(CO)nn(-c2cc3c(cc2F)C(=O)N(c2c(C)cnc(OC)c2Cl)CC3C(C)C)c1=O (single isomer, unassigned) [Example 67, (R *)-2-(3-Chloro-2-methoxy-5-methylpyridin-4-yl)-6-(4-ethyl-3-(hydroxymethyl)-5-oxo-4,5-dihydro-1H-1,2,4-triazol-1-yl)-7-fluoro-4-isopropyl-3,4-dihydroisoquinolin-1(2H)-one]"
> 100,26.8,,"C=C(C)[C@@H]1CN(c2c(C)cc(C)nc2Cl)C(=O)c2cc(F)c(-n3nc(CO)n(CC)c3=O)cc21 (single isomer, unassigned; atropisomer 1) [Example 60, Atropisomer 1, (S*)-2-(2-Chloro-4,6-dimethylpyridin-3-yl)-6-(4-ethyl-3-(hydroxymethyl)-5-oxo-4,5-dihydro-1H-1,2,4-triazol-1-yl)-7-fluoro-4-(prop-1-en-2-yl)-3,4-dihydroisoquinolin-1(2H)-one]"
